Non-standard residues stand in square brackets, D forms with d. Residues, ends and D or L forms follow the SMILES beside them.
Key:
[1] = test system: S. aureus (MRSA) (ATCC No. 33591); assay: Time-killing curve, S. aureus MRSA ATCC 33591; format: cell-based, Staphylococcus aureus; details: FIG. 8a; at MIC concentrations
Method: (§1) The speed at which several of the cyclic peptides of the invention kill E. coli JM 109 (DE3), Enterococcus faecium SP 180 and S. aureus (MRSA) (ATCC No. 33591 and 33592) was further tested at room temperature and/or at 37° C. A lower temperature tends to enrich the bacterial cultures for mature bacteria because the bacteria are not growing quickly. […] The presence or absence of immature bacteria in the culture may influence the rate at which the bacteria are killed, because immature bacteria tend to be more susceptible to many forms of antibiotics.
To generate the data shown in FIG. 8a, the log of the number of colony forming units (cfu) per ml of culture was determined as a function of time after treatment of S. aureus (MRSA) (ATCC No. 33591) with cyclo[KHLWLW] (closed circles), cyclo[KRKWLWLW] (closed triangles), and cyclo[KQRWLWLW] (open squares) at MIC concentrations. […] The reduction in cfu count was greater than 3 log units. Cyclic peptide cyclo[KHLWLW] killed effectively all S. aureus (MRSA) within about 60 minutes.

[2] = test system: E. coli JM109 (DE3); assay: Time-killing curve, E. coli; format: cell-based, Escherichia coli; details: FIG. 8b; at MIC concentrations
Method: as §1
In FIG. 8b, the log of the number of E. coli colony forming units (cfu) per ml of culture is plotted versus time treated with cyclo[KRKWLWLW] (closed triangles), cyclo[KQRWLWLW] (closed circles), cyclo[KHLWLW] (closed squares), and cyclo[KKWLW] (open squares) at MIC concentrations. […] Cyclic peptide cyclo[KHKLWLW] kills effectively all E. coli within about 90 minutes. Cyclic peptides cyclo[KRKWLWLW] and cyclo[KKWLW] kill effectively all of the E. coli within about 130 minutes. […] Nonetheless, these cyclic peptides kill both types of bacteria very quickly.

[3] = in vivo; details: for bioavailability / Vd / clearance / half-life: Balb/C, mouse, plasma; for bioavailability: intraperitoneal, 100 mg/kg; for Vd / clearance / half-life: iv; for Kel elimination rate constant: Mouse, IV injection
Method: IV injection: Solution of peptide in 9% sucrose (1 mg/mL) was injected IV into the tail vein of Balb/C mice at a dose of 3.6 mg/kg. Then the blood was collected immediately from one group of mice (3 mice per group) by bleeding the tail, separately from each mouse (50-100 uL per mouse). Further collections of blood were done from other groups of mice at times 20, 40, 70, 90, 120, 180, and 260 min after injection. Plasma from each blood sample was separated immediately after collection by spinning down red blood cells over a period of 5 min at 4000 rev./min. The plasma was then diluted with an equal volume of saline and refrigerated until analysis.
IP injection: Solutions of peptide in 9% sucrose (8.1 mg/mL) were injected EP into Balb/C mice at a dose of 100 mg/kg. Blood was collected immediately from one group of mice (3 mice per group) by bleeding the tail, separately from each mouse (50-100 uL per mouse). Further collections of blood were done from other groups of mice at times 0.5, 1, 2, 4, 6, 10, 15 h after injection. Plasma from each blood sample was separated immediately after collection by spinning down red blood cells over a period of 5 min at 4000 rev./min. Plasma was then diluted with equal volume of saline and refrigerated until analysis.
Detection of cyclo[RRKWLWW]-HCl in plasma by HPLC: Diluted with saline plasma (50-100 uL) was added to an eluent A (0.1% HCl in 99% H2O/1% ACN (v/v)) (150-300 uL), vortexed, and partial precipitation was removed by centrifugation. The clear solution was injected into an HPLC and the peptide was detected at 280 nm, in the 8-10 min interval, using a gradient of eluent A (0.1% HCl in 99% H2O/1% ACN (v/v)) and eluent B (0.07% HCl in 10% H2O/90% ACN (v/v)) using a flow rate of 1.5 ml/min. The following gradient was used: 30 to 30% B (5 min), followed by 30 to 37% B (5 min), followed by 37 to 40% B (12.5 min).
IV injection: Solution of peptide in 9% sucrose (2 mg/mL) was injected IV into the tail vein of Balb/C mice at a dose of 5 mg/kg. Blood was then collected immediately from one group of mice (3 mice per group) by bleeding the tail, separately from each mouse (50-100 uL per mouse). Further collections of blood were done from other groups of mice at times 30, 60, 120, 230, and 300 min after injection. Plasma from each blood sample was separated immediately after collection by spinning down red blood cells over a period of 5 min at 4000 rev./min. Plasma was then diluted with an equal volume of saline and refrigerated until analysis.
IP injection: Solution of peptide in 9% sucrose (9.8 mg/mL) was injected IP into Balb/C mice at a dose of 100 mg/kg. Blood was then collected immediately from one group of mice (3 mice per group) by bleeding the tail, separately from each mouse (50-100 uL per mouse). Further collections of blood were done from other groups of mice at times 0.5, 1, 2, 4, 6, 10 h after injection. Plasma from each blood sample was separated immediately after collection by spinning down red blood cells over a period of 5 min at 4000 rev./min. Plasma was then diluted with an equal volume of saline and refrigerated until analysis.
Detection of c(KSKWLWW) HC in plasma by HPLC: Samples were diluted with saline plasma (50-100 uL), added to an equal volume of eluent A (0.1% TFA in 96.5% H2O/0.9% ACN/2.4% MeOH (v/v)), vortexed, and partial precipitation was removed by centrifugation. The clear solution was injected into HPLC and the peptide was detected at 280 nm, in the 18-20 min interval, using a gradient of eluent A (0.1% TFA in 96.5% H2O/0.9% ACN/2.4% MeOH (v/v)) and eluent B (0.05% TFA in 8% H2O/72% ACN/20% MeOH (v/v)) using a flow rate of 1.5 ml/min. The following gradient was used: 0 to 0% B (5 min), followed by 0 to 100% B (25 min).

[4] = test system: S. aureus (MRSA) (ATCC No. 33592); assay: Time-killing curve, S. aureus MRSA ATCC 33592; format: cell-based, Staphylococcus aureus; details: about 4 μg/ml
Method: as §1
FIGS. 9 and 10 illustrate the time course for killing S. aureus (MRSA) (ATCC No. 33592) with varying concentrations of cyclo[KSKWLWLW] cyclic peptide (SEQ ID NO:12) at room temperature and at 37° C. […] This may be due to growth of a few survivors after the residual cyclic peptide within the culture has been exhausted because the amount of peptide employed in that assay was below the MIC value.

[5] = trypsin, α-chymotrypsin, subtilisin, blood plasma; RP-HPLC over 24 h
Method: Cyclic peptides having SEQ ID NO:13, 18, 26, and 29 were assayed for proteolytic susceptibility.

SMILES	time to kill effectively all S. aureus (MRSA) [1]	time to kill effectively all E. coli [2]	bioavailability [3] [%]	Vd [3] [L/kg]	clearance [3] [mL/min]	half-life [3] [h]	Kel elimination rate constant [3] [h⁻¹]	rebound of bacterial population ([4]; 37° C.)	time to kill effectively all bacteria ([4]; 37° C.)	rebound of bacterial population ([4]; room temperature)	time to kill all S. aureus (MRSA) ([4]; room temperature) [h]	proteolytic stability [5]
CC(C)C[C@H]1NC(=O)[C@H](Cc2c[nH]c3ccccc23)NC(=O)[C@@H](CCCNC(=N)N)NC(=O)[C@H](CCC(N)=O)NC(=O)[C@@H](CCCCN)NC(=O)[C@H](Cc2c[nH]c3ccccc23)NC(=O)[C@@H](CC(C)C)NC(=O)[C@H](Cc2c[nH]c3ccccc23)NC1=O [SEQ ID NO:8, cyclo-(D-Lys-Gln-D-Arg-Trp-D-Leu-Trp-D-Leu-Trp)] (cyclo([dK]Q[dR]W[dL]W[dL]W))	within about five minutes	within about thirty minutes										
CC(C)C[C@H]1NC(=O)[C@H](Cc2c[nH]c3ccccc23)NC(=O)[C@@H](CCCCN)NC(=O)[C@H](CO)NC(=O)[C@@H](CCCCN)NC(=O)[C@H](Cc2c[nH]c3ccccc23)NC(=O)[C@@H](CC(C)C)NC(=O)[C@H](Cc2c[nH]c3ccccc23)NC1=O [SEQ ID NO:12, D-Lys-Ser-D-Lys-Trp-D-Leu-Trp-D-Leu-Trp] (cyclo([dK]S[dK]W[dL]W[dL]W))			32	0.67	0.3	0.83	0.84	rebounds by about six hours	within about one hour	no rebound is observed	≤ 2	
CC(C)C[C@H]1NC(=O)[C@H](Cc2c[nH]c3ccccc23)NC(=O)[C@@H](CCCCN)NC(=O)[C@H](CCCNC(=N)N)NC(=O)[C@@H](CCCNC(=N)N)NC(=O)[C@H](Cc2c[nH]c3ccccc23)NC(=O)[C@@H](CC(C)C)NC(=O)[C@H](Cc2c[nH]c3ccccc23)NC1=O [SEQ ID NO:18, cyclo-(D-Arg-Arg-D-Lys-Trp-D-Leu-Trp-D-Leu-Trp)] (cyclo([dR]R[dK]W[dL]W[dL]W))			9	0.58	0.16	1.2	0.6	rebounds by about eight hours	within about one hour	no rebound is observed	≤ 1	stable
